From ChEMBL document CHEMBL1135630 (J Med Chem, 2002)

Key:
Rattus norvegicus [1] = species: Rattus norvegicus; test: Agonist activity against alpha beta Nicotinic acetylcholine receptor (nAChR) in male rat cerebral cortex using antinociceptive assay in hot plate test; type: functional
Rattus norvegicus [2] = species: Rattus norvegicus; test: Agonist activity against alpha beta Nicotinic acetylcholine receptor (nAChR) in male rat cerebral cortex using antinociceptive assay in tail flick test; type: functional
Rattus norvegicus [3] = species: Rattus norvegicus; test: Agonist activity against alpha beta Nicotinic acetylcholine receptor (nAChR) in male rat cerebral cortex using antinociceptive assay in hypothermia test; type: functional
[4] = Inhibition of [3H]- epibatidine binding at the Nicotinic acetylcholine receptor alpha beta (nAChR) in male rat cerebral cortex; type: tissue-based
Rattus norvegicus [5] = test: Antagonist activity after subcutaneously administration of nicotine at a dose of 2.5 mg/kg in hot- plate test at a concentration of 0.05 mg/kg; type: functional; set-up: scale not given: the % may be the effect or the level left
Rattus norvegicus [6] = test: Antagonist activity after subcutaneously administration of nicotine at a dose of 2.5 mg/kg in tail-flick test at a concentration of 0.05 mg/kg; type: functional; set-up: scale not given: the % may be the effect or the level left
[7] = target: Neuronal acetylcholine receptor subunit alpha-7 (Rattus norvegicus, UniProt Q05941); test: Inhibition of [125I]- iodo-MLA binding at the Nicotinic acetylcholine receptor alpha-7 (nAChR) in male rat cerebral cortex; type: tissue-based
Rattus norvegicus [8] = species: Rattus norvegicus; test: Agonist activity against alpha beta Nicotinic acetylcholine receptor (nAChR) in male rat cerebral cortex in antinociceptive assay in hypothermia test; type: functional
Rattus norvegicus [9] = species: Rattus norvegicus; test: Agonist activity against alpha beta Nicotinic acetylcholine receptor (nAChR) in male rat cerebral cortex in antinociceptive assay in tail flick test; type: functional
Rattus norvegicus [10] = species: Rattus norvegicus; test: Agonist activity against alpha beta Nicotinic acetylcholine receptor (nAChR) in male rat cerebral cortex in antinociceptive assay in hot plate test; type: functional
[11] = target: T1, Neuronal acetylcholine receptor (Rattus norvegicus) (UniProt P04757+P09483+P12389+P12390+P12392+P43144+Q9JLB5+P12391+P43143+P20420+Q05941); test: Agonist activity against alpha beta Nicotinic acetylcholine receptor (nAChR) in male rat cerebral cortex in antinociceptive assay in hypothermia test at a dose of 10 mg/kg; type: functional, organism-based; set-up: dose 10 mg/kg
[12] = target: T1, Neuronal acetylcholine receptor (Rattus norvegicus); test: Agonist activity against alpha beta Nicotinic acetylcholine receptor (nAChR) in male rat cerebral cortex in antinociceptive assay in hot plate test at a dose of 10 mg/kg; type: functional, organism-based; set-up: dose 10 mg/kg
[13] = target: T1, Neuronal acetylcholine receptor (Rattus norvegicus); test: Agonist activity against alpha beta Nicotinic acetylcholine receptor (nAChR) in male rat cerebral cortex in antinociceptive assay in tail flick test at a dose of 10 mg/kg; type: functional, organism-based; set-up: dose 10 mg/kg
Rattus norvegicus [14] = test: Antagonist activity after subcutaneously administration of nicotine at a dose of 2.5 mg/kg in hot- plate test at a concentration of 0.01 mg/kg; type: functional; set-up: scale not given: the % may be the effect or the level left
Rattus norvegicus [15] = test: Antagonist activity after subcutaneously administration of nicotine at a dose of 2.5 mg/kg in tail-flick test at a concentration of 0.01 mg/kg; type: functional; set-up: scale not given: the % may be the effect or the level left
Rattus norvegicus [16] = test: Antagonist activity after subcutaneously administration of nicotine at a dose of 2.5 mg/kg in hotplate test at a concentration of 0.05 mg/kg; type: functional; set-up: scale not given: the % may be the effect or the level left
Rattus norvegicus [17] = test: Antagonist activity after subcutaneously administration of nicotine at a dose of 2.5 mg/kg in tail-flick test (value in parentheses is 95% confidence limits); type: functional; details: route subcutaneous
Rattus norvegicus [18] = test: Antagonist activity after subcutaneously administration of nicotine at a dose of 2.5 mg/kg in hot- plate test, the values expressed as 95% confidence limit (value in parentheses is 95% confidence limits); type: functional; details: route subcutaneous

Chain of Neuronal acetylcholine receptor subunit alpha-7 (Q05941 whole entry): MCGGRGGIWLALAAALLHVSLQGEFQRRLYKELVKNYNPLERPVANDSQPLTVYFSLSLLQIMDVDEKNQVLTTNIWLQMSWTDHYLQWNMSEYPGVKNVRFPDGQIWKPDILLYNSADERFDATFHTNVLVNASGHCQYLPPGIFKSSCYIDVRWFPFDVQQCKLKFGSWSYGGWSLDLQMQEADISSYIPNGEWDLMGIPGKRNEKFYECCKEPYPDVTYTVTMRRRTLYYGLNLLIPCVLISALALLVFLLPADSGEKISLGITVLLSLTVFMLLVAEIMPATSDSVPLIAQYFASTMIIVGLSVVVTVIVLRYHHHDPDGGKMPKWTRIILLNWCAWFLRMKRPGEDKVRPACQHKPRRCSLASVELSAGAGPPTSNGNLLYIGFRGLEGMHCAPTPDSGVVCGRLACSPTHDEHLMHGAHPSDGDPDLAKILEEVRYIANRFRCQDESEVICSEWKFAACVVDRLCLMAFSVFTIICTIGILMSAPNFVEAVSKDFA

| SMILES | ED50 (Rattus norvegicus [1]) | ED50 (Rattus norvegicus [2]) | ED50 (Rattus norvegicus [3]) | Ki [4] | also measured |
| --- | --- | --- | --- | --- | --- |
| Fc1ncc([C@H]2CC3CCC2N3)cc1Br (stereo partly drawn) | 1200 µg/kg | 700 µg/kg | 10 µg/kg | 0.071 nM | Effect (Rattus norvegicus [5]): 0%; Effect (Rattus norvegicus [6]): 0% |
| Fc1cc(C2CC3CCC2N3)cnc1Cl (stereo not drawn) | 9 µg/kg | 8 µg/kg | 6 µg/kg | 0.025 nM | Ki [7]: 3.43 nM |
| Ic1ccc(C2CC3CCC2N3)cn1 (stereo not drawn) |  |  |  | 0.07 nM |  |
| Oc1ccc([C@H]2CC3CCC2N3)cn1 (stereo partly drawn) |  |  |  | 1.5 nM | Ki [7]: 675 nM; ED50 (Rattus norvegicus [8]): 1200 µg/kg; ED50 (Rattus norvegicus [9]): 1500 µg/kg; ED50 (Rattus norvegicus [10]): 500 µg/kg |
| Brc1ccc([C@H]2CC3CCC2N3)cn1 (stereo partly drawn) |  |  |  | 0.023 nM |  |
| Nc1ccc([C@H]2CC3CCC2N3)cn1 (stereo partly drawn) |  |  |  | 1.3 nM |  |
| Oc1ncc([C@H]2CC3CCC2N3)cc1Br (stereo partly drawn) |  |  |  | 14.4 nM | Effect [11]: 0%; Effect [12]: 9%; Effect [13]: 1% |
| Fc1ncc([C@H]2CC3CCC2N3)cc1I (stereo partly drawn) | 900 µg/kg | 700 µg/kg | 300 µg/kg | 0.051 nM | Effect (Rattus norvegicus [5]): 0%; Effect (Rattus norvegicus [6]): 0% |
| Clc1ncc(C2CC3CCC2N3)cc1I (stereo not drawn) | 140 µg/kg | 240 µg/kg | 27 µg/kg | 0.008 nM | Effect (Rattus norvegicus [14]): 0%; Effect (Rattus norvegicus [15]): 4% |
| Brc1cc([C@H]2CC3CCC2N3)cnc1I (stereo partly drawn) | 240 µg/kg | 270 µg/kg | 40 µg/kg | 0.027 nM | Effect (Rattus norvegicus [16]): 0%; Effect (Rattus norvegicus [6]): 4% |
| Fc1ncc([C@H]2CC3CCC2N3)cc1Cl (stereo partly drawn) |  |  |  | 0.02 nM |  |
| Clc1cc([C@H]2CC3CCC2N3)cnc1Cl (stereo partly drawn) | 30 µg/kg | 50 µg/kg | 20 µg/kg | 0.014 nM | Ki [7]: 1.12 nM |
| Fc1ccc(C2CC3CCC2N3)cn1 (stereo not drawn) |  |  |  | 0.027 nM |  |
| Brc1cc([C@H]2CC3CCC2N3)cnc1Br (stereo partly drawn) |  |  |  | 0.015 nM |  |
| Clc1ncc([C@H]2CC3CCC2N3)cc1Br (stereo partly drawn) | 20 µg/kg | 30 µg/kg | 40 µg/kg | 0.013 nM |  |
| Nc1ncc([C@H]2CC3CCC2N3)cc1Br (stereo partly drawn) | 50 µg/kg | 70 µg/kg | 75 µg/kg | 0.29 nM |  |
| Clc1ccc(C2CC3CCC2N3)cn1 (racemic) [EPIBATIDINE] |  |  |  |  | ED50 (Rattus norvegicus [8]): 4 µg/kg; ED50 (Rattus norvegicus [9]): 6 µg/kg; ED50 (Rattus norvegicus [10]): 4 µg/kg |
| Nc1ncc([C@H]2CC3CCC2N3)cc1I (stereo partly drawn) | 500 µg/kg | 650 µg/kg | 300 µg/kg | 0.52 nM | Ki [7]: 34.1 nM |
| Nc1cc([C@H]2CC3CCC2N3)cnc1Cl (stereo partly drawn) | 20 µg/kg | 20 µg/kg | 17 µg/kg | 0.001 nM | AD50 (Rattus norvegicus [17]): 0.03 µg/kg; Ki [7]: 13.9 nM; AD50 (Rattus norvegicus [18]): 0.6 µg/kg |
| Fc1cc([C@H]2CC3CCC2N3)cnc1F (stereo partly drawn) |  |  |  | 0.055 nM |  |
